The values that follow come from ChEMBL document CHEMBL1130469, “Prolyl endopeptidase inhibitors1: N-acyl derivatives of L-thioproline-pyrrolidine” (Bioorg Med Chem Lett, 1997).

pIC50: −log10 of the molar value.

In general, pIC50 refers to −log10 of the IC50, conventionally taken in molar units. A high value points to a low IC50.

The target of this test is T1, Prolyl endopeptidase (Rattus norvegicus, UniProt O70196).
T1 sequence (O70196 whole entry): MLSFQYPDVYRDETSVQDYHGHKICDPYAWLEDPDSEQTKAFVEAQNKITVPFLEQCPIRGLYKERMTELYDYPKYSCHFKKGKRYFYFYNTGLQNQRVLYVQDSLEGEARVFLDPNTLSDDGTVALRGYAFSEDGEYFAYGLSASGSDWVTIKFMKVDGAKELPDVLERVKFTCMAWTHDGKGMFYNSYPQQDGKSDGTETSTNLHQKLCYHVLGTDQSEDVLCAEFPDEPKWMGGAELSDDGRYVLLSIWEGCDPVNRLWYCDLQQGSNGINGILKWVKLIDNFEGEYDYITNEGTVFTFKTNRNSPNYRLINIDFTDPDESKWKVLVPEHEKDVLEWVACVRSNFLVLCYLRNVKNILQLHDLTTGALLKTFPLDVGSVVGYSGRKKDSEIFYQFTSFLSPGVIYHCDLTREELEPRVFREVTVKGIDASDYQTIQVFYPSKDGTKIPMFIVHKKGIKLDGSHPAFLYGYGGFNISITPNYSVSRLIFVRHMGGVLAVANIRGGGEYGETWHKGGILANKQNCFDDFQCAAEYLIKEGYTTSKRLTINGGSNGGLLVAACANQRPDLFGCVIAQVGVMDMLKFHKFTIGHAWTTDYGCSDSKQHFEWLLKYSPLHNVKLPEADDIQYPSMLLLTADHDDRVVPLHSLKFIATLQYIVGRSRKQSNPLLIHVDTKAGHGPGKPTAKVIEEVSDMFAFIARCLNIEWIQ
Put plainly: Inhibitory activity against rat brain Prolyl endopeptidase (PEP).
Take `CCCCC(=O)N1CSC[C@H]1C(=O)N1CCCC1`: the negative logarithm of the IC50 (pIC50) is 7.43. The result for `CCCCCCCCCCCC(=O)N1CSC[C@H]1C(=O)N1CCCC1` reads 7.34. `CCCCCCCCCC(=O)N1CSC[C@H]1C(=O)N1CCCC1` showed a negative-log IC50 (pIC50) of 7.42. `CCCCCCCC(=O)N1CSC[C@H]1C(=O)N1CCCC1`: the pIC50 was 7.96. The result for `CCCC(=O)N1CSC[C@H]1C(=O)N1CCCC1` reads 6.78; that for `CCCCCCC(=O)N1CSC[C@H]1C(=O)N1CCCC1`, 7.77. The molecule `CCCCCCCCC=CCCCCCCCC(=O)N1CSC[C@H]1C(=O)N1CCCC1` showed a pIC50 of 6.98. The result for `CCCCCC(=O)N1CSC[C@H]1C(=O)N1CCCC1` reads 7.43; that for `CCCCCCCCC(=O)N1CSC[C@H]1C(=O)N1CCCC1`, 7.42. Consider `CCCCCCCCCCC(=O)N1CSC[C@H]1C(=O)N1CCCC1`, for which the pIC50 is 7.38.

Molecule `CCC/C=C/C=C(\C)C(=O)N1CCC[C@H]1C(=O)N1CCCC1` showed a negative-log IC50 (pIC50) of 6.68.

`CCCCC/C=C(\C)C(=O)N1CCC[C@H]1C(=O)N1CCCC1` showed a negative logarithm of the IC50 (pIC50) of 7.14. The figure for `CCCCCCCCCCCCCCCCCC(=O)N1CSC[C@H]1C(=O)N1CCCC1` is 6.04; for `CCCCCCCCCCCCCC(=O)N1CSC[C@H]1C(=O)N1CCCC1` it is 7.10; for `CCCCC/C=C/C(=O)N1CCC[C@H]1C(=O)N1CCCC1` it is 7.47. Molecule `CCCCCCCCCCCCCCCCCCCC(=O)N1CSC[C@H]1C(=O)N1CCCC1` showed a pIC50 of 5.94.

As for `CCCCCCCCCCCCCCCC(=O)N1CSC[C@H]1C(=O)N1CCCC1`, the pIC50 is 6.67.
